Measurements taken from article PMC8788362, “Rational design and synthesis of 2-(1H-indazol-6-yl)-1H-benzo[d]imidazole derivatives as inhibitors targeting FMS-like tyrosine kinase 3 (FLT3) and its mutants” (Journal of Enzyme Inhibition and Medicinal Chemistry, 2022).
Residue numbers refer to the chain shown, from its start.

How the values were obtained:
[1] = molecular target: T1, FLT3 (D835Y) (Homo sapiens, UniProt P36888, D835Y); test: Reaction Biology Kinase HotSpot radiometric kinase assay; type: biochemical
T1 construct: purchased Reaction Biology Corp. (Kinase HotSpot service)
T1 sequence (P36888 27-993 D835Y): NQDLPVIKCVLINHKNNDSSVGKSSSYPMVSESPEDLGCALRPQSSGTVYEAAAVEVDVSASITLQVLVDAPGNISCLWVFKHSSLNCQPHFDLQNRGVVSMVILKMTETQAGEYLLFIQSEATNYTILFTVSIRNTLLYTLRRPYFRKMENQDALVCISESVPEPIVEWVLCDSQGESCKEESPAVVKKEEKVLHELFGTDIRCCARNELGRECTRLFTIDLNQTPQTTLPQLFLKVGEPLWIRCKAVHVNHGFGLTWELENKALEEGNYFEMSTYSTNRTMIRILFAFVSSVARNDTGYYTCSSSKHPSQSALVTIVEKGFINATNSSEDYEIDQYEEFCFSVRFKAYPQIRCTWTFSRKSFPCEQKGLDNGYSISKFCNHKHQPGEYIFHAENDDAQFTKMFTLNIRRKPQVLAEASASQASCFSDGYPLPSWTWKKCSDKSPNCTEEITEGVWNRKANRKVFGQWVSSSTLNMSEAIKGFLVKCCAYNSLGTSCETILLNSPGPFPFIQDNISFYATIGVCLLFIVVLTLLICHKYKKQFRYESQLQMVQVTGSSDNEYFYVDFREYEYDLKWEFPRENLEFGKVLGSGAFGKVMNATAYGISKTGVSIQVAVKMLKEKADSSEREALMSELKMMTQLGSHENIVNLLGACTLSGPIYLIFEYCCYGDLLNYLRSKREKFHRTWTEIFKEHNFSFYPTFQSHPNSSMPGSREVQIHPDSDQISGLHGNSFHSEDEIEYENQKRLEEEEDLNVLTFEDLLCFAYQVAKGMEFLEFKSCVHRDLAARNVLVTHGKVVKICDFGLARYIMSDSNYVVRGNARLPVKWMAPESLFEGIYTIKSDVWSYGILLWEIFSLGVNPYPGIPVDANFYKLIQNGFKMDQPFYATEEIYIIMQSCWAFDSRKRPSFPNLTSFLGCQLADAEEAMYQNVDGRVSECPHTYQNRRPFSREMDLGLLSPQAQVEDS
From the text: (§1) (specific activity approx. 500 cpm/pmol, concentration as required).

[2] = molecular target: T2, FLT3 wild type (Homo sapiens, UniProt P36888); test: as above; type: biochemical; details: ATP 10 µM; read-out: FLT3 IC50
T2 construct: purchased Reaction Biology Corp. (Kinase HotSpot service)
T2 sequence (P36888 27-993): T1 sequence (P36888 27-993 D835Y) with Y809D
From the text: as §1

In the case of `CN1CCN(c2cc(C(=O)Nc3ccc4[nH]c(-c5ccc6cn[nH]c6c5)nc4c3)cc(C(F)(F)F)c2)CC1` [8a, N-(2-(1H-Indazol-6-yl)-1H-benzo[d]imidazol-5-yl)-3–(4-methylpiperazin-1-yl)-5-(trifluoromethyl)benzamide], the IC50 [1] is reported as 21 nM, the IC50 [2] is reported as 181 nM and the melting point is reported as 228 to 230 °C.
In the case of `Cc1cn(-c2cc(C(=O)Nc3ccc4[nH]c(-c5ccc6cn[nH]c6c5)nc4c3)cc(C(F)(F)F)c2)cn1` [8b, N-(2-(1H-Indazol-6-yl)-1H-benzo[d]imidazol-5-yl)-3–(4-methyl-1H-imidazol-1-yl)-5-(trifluoromethyl)benzamide], the IC50 [1] is reported as 110 nM, the IC50 [2] is reported as 639 nM and the melting point is reported as 239 to 241 °C.
For `Cc1nccn1-c1cc(C(=O)Nc2ccc3[nH]c(-c4ccc5cn[nH]c5c4)nc3c2)cc(C(F)(F)F)c1` [8c, N-(2-(1H-Indazol-6-yl)-1H-benzo[d]imidazol-5-yl)-3–(2-methyl-1H-imidazol-1-yl)-5-(trifluoromethyl)benzamide], the IC50 [1] was 108 nM, the IC50 [2] was 470 nM and the melting point was 251 to 253 °C.
With `O=C(Nc1ccc2[nH]c(-c3ccc4cn[nH]c4c3)nc2c1)c1cc(N2CCOCC2)cc(C(F)(F)F)c1` [8d, N-(2-(1H-Indazol-6-yl)-1H-benzo[d]imidazol-5-yl)-3-morpholino-5-(trifluoromethyl)benzamide] the IC50 [1] was 151 nM, the IC50 [2] was 1030 nM and the melting point was 195 to 196 °C.
`CN1CCN(c2ccc(C(=O)Nc3ccc4[nH]c(-c5ccc6cn[nH]c6c5)nc4c3)cc2C(F)(F)F)CC1` [8e, N-(2-(1H-Indazol-6-yl)-1H-benzo[d]imidazol-5-yl)-4–(4-methylpiperazin-1-yl)-3-(trifluoromethyl)benzamide] showed an IC50 [1] of 44 nM, an IC50 [2] of 154 nM and a melting point of 160 to 161 °C.
`O=C(Nc1ccc2[nH]c(-c3ccc4cn[nH]c4c3)nc2c1)c1ccc(N2CCOCC2)c(C(F)(F)F)c1` [8f, N-(2-(1H-Indazol-6-yl)-1H-benzo[d]imidazol-5-yl)-4-morpholino-3-(trifluoromethyl)benzamide] showed an IC50 [1] of 370 nM, an IC50 [2] of 2510 nM and a melting point of 202 to 204 °C.
In the case of `O=C(Nc1ccc2[nH]c(-c3ccc4cn[nH]c4c3)nc2c1)c1cnn(-c2ccccc2)c1C(F)(F)F` [8g, N-(2-(1H-Indazol-6-yl)-1H-benzo[d]imidazol-5-yl)-1-phenyl-5-(trifluoromethyl)-1H-pyrazole-4-carboxamide], the IC50 [1] is reported as 63 nM, the IC50 [2] is reported as 1100 nM and the melting point is reported as 258 to 260 °C.
Compound `CC(C)(C)c1cc(C(=O)Nc2ccc3[nH]c(-c4ccc5cn[nH]c5c4)nc3c2)no1` [8h, N-(2-(1H-Indazol-6-yl)-1H-benzo[d]imidazol-5-yl)-5-(tert-butyl)isoxazole-3-carboxamide] has an IC50 [1] of 82 nM, an IC50 [2] of 702 nM and a melting point of 147 to 149 °C.
With `O=C(Nc1ccc2[nH]c(-c3ccc4cn[nH]c4c3)nc2c1)c1ccc(Cl)c(C(F)(F)F)c1` [8i, N-(2-(1H-Indazol-6-yl)-1H-benzo[d]imidazol-5-yl)-4-chloro-3-(trifluoromethyl)benzamide] the IC50 [1] was 84 nM, the IC50 [2] was 676 nM and the melting point was 215 to 217 °C.
`O=C(Nc1ccc2[nH]c(-c3ccc4cn[nH]c4c3)nc2c1)c1ccc(Cl)c(Cl)c1` [8j, N-(2-(1H-Indazol-6-yl)-1H-benzo[d]imidazol-5-yl)-3,4-dichlorobenzamide] showed an IC50 [1] of 103 nM, an IC50 [2] of 514 nM and a melting point of 255 to 257 °C.
`COc1ccc(/C=C/C(=O)Nc2ccc3[nH]c(-c4ccc5cn[nH]c5c4)nc3c2)cc1` [8k, (E)-N-(2-(1H-Indazol-6-yl)-1H-benzo[d]imidazol-5-yl)-3–(4-methoxyphenyl)acrylamide] showed an IC50 [1] of 191 nM, an IC50 [2] of 761 nM and a melting point of 206 to 208 °C.
`CC(C)(C)c1cc(NC(=O)Nc2ccc3[nH]c(-c4ccc5cn[nH]c5c4)nc3c2)no1` [8l, 1–(2-(1H-Indazol-6-yl)-1H-benzo[d]imidazol-5-yl)-3–(5-(tert-butyl)isoxazol-3-yl)urea] gave an IC50 [1] of 261 nM, an IC50 [2] of 1170 nM and a melting point of 184 to 186 °C.
With `O=C(Nc1ccc(Cl)c(Cl)c1)Nc1ccc2[nH]c(-c3ccc4cn[nH]c4c3)nc2c1` [8m, 1–(2-(1H-Indazol-6-yl)-1H-benzo[d]imidazol-5-yl)-3–(3,4-dichlorophenyl)urea] the IC50 [1] was 1010 nM, the IC50 [2] was 3580 nM and the melting point was 144 to 146 °C.
For `CN(C)C1CCN(c2cc(C(=O)Nc3ccc4[nH]c(-c5ccc6cn[nH]c6c5)nc4c3)cc(C(F)(F)F)c2)C1` (stereo not drawn) [8n, N-(2-(1H-Indazol-6-yl)-1H-benzo[d]imidazol-5-yl)-3–(3-(dimethylamino)pyrrolidin-1-yl)-5-(trifluoromethyl)benzamide], the IC50 [1] was 113 nM, the IC50 [2] was 287 nM and the melting point was 283 to 285 °C.
`CCN(CC)C1CCN(c2cc(C(=O)Nc3ccc4[nH]c(-c5ccc6cn[nH]c6c5)nc4c3)cc(C(F)(F)F)c2)C1` (stereo not drawn) [8o, N-(2-(1H-Indazol-6-yl)-1H-benzo[d]imidazol-5-yl)-3–(3-(diethylamino)pyrrolidin-1-yl)-5-(trifluoromethyl)benzamide] showed an IC50 [1] of 120 nM, an IC50 [2] of 841 nM and a melting point of 221 to 223 °C.
Compound `O=C(Nc1ccc2[nH]c(-c3ccc4cn[nH]c4c3)nc2c1)c1cc(N2CCN(C3CC3)CC2)cc(C(F)(F)F)c1` [8p, N-(2-(1H-Indazol-6-yl)-1H-benzo[d]imidazol-5-yl)-3–(4-cyclopropylpiperazin-1-yl)-5-(trifluoromethyl)benzamide] has an IC50 [1] of 131 nM, an IC50 [2] of 409 nM and a melting point of 154 to 156 °C.
Work on `O=C(Nc1ccc2[nH]c(-c3ccc4cn[nH]c4c3)nc2c1)c1cc(CN2CCN(C3CC3)CC2)cc(C(F)(F)F)c1` [8q, N-(2-(1H-Indazol-6-yl)-1H-benzo[d]imidazol-5-yl)-3-((4-cyclopropylpiperazin-1-yl)methyl)-5-(trifluoromethyl)benzamide] yielded an IC50 [1] of 174 nM, an IC50 [2] of 525 nM and a melting point of 150 to 152 °C.
Compound `CN1CCC(Nc2cc(C(=O)Nc3ccc4[nH]c(-c5ccc6cn[nH]c6c5)nc4c3)cc(C(F)(F)F)c2)CC1` [8s, N-(2-(1H-Indazol-6-yl)-1H-benzo[d]imidazol-5-yl)-3-((1-methylpiperidin-4-yl)amino)-5-(trifluoromethyl)benzamide] has an IC50 [1] of 25 nM, an IC50 [2] of 158 nM and a melting point of 175 to 177 °C.
Compound `CCN1CCC(Nc2cc(C(=O)Nc3ccc4[nH]c(-c5ccc6cn[nH]c6c5)nc4c3)cc(C(F)(F)F)c2)CC1` [8t, N-(2-(1H-Indazol-6-yl)-1H-benzo[d]imidazol-5-yl)-3-((1-ethylpiperidin-4-yl)amino)-5-(trifluoromethyl)benzamide] has an IC50 [1] of 87 nM, an IC50 [2] of 285 nM and a melting point of 166 to 168 °C.
Work on `CN1CCC(Oc2cc(C(=O)Nc3ccc4[nH]c(-c5ccc6cn[nH]c6c5)nc4c3)cc(C(F)(F)F)c2)CC1` [8u, N-(2-(1H-Indazol-6-yl)-1H-benzo[d]imidazol-5-yl)-3-((1-methylpiperidin-4-yl)oxy)-5-(trifluoromethyl)benzamide] yielded an IC50 [1] of 55 nM, an IC50 [2] of 289 nM and a melting point of 293 to 295 °C.
